Where two headings read alike, the source gives them in different places.
What was measured:
BT-549 = assay: NCI 60 cell line panel screen (SRB); format: cell-based, human
UACC-62 = assay: NCI 60 cell line panel screen (SRB); format: cell-based, human
SF-295 = assay: NCI 60 cell line panel screen (SRB); format: cell-based, human; conditions: for Log10GI50: CNS Cancer, SF-295; for Log10LC50 / Log10TGI50: SF-295 (CNS Cancer); for Log10LC50: LC50: PG=−50; for Log10TGI50: TGI: PG=0
SW-620 = assay: NCI 60 cell line panel screen (SRB); format: cell-based, human
ACHN = assay: NCI 60 cell line panel screen (SRB); format: cell-based, human; conditions: for Log10LC50 / Log10TGI50: ACHN (Renal Cancer); for Log10LC50: LC50: PG=−50; for Log10TGI50: TGI: PG=0; for Log10GI50: Renal Cancer, ACHN
SK-OV-3 = assay: NCI 60 cell line panel screen (SRB); format: cell-based, human
SR = assay: NCI 60 cell line panel screen (SRB); format: cell-based, human
MDA-N = assay: NCI 60 cell line panel screen (SRB); format: cell-based, human
HCC-2998 = assay: NCI 60 cell line panel screen (SRB); format: cell-based, human
A498 = assay: NCI 60 cell line panel screen (SRB); format: cell-based, human
HOP-62 = assay: NCI 60 cell line panel screen (SRB); format: cell-based, human; conditions: for Log10LC50 / Log10TGI50: HOP-62 (Non-Small Cell Lung Cancer); for Log10LC50: LC50: PG=−50; for Log10TGI50: TGI: PG=0; for Log10GI50: Non-Small Cell Lung Cancer, HOP-62
NCI-H226 = assay: NCI 60 cell line panel screen (SRB); format: cell-based, human
SK-MEL-5 = assay: NCI 60 cell line panel screen (SRB); format: cell-based, human
DU-145 = assay: NCI 60 cell line panel screen (SRB); format: cell-based, human
SN12C = assay: NCI 60 cell line panel screen (SRB); format: cell-based, human
LOX IMVI = assay: NCI 60 cell line panel screen (SRB); format: cell-based, human
SNB-19 = assay: NCI 60 cell line panel screen (SRB); format: cell-based, human
OVCAR-4 = assay: NCI 60 cell line panel screen (SRB); format: cell-based, human
[1] = Solubility in water at pH 7.4; format: physicochemical
[2] = tested on: P. berghei NY malaria parasite; assay: Antimalarial efficacies in vivo in mice; conditions: for ED50: Plasmodium berghei, read-out: ED50
Excerpt: Neither overt toxicity nor behavioral modification was observed due to drug administration in any of these mouse experiments.

## CC1CCC2C(C)C(CC(CO)CC3OC4OC5(C)CCC6C(C)CCC(C3C)C46OO5)OC3OC4(C)CCC1C32OO4 (stereo not shown) [Compound 4, bis-trioxane primary alcohol]
BT-549; BT-549 (Breast Cancer), LC50: PG=−50
  Log10LC50: −4.31 log10M
BT-549; BT-549 (Breast Cancer), TGI: PG=0
  Log10TGI50: −4.73 log10M
BT-549; Breast Cancer, BT-549
  Log10GI50: −7.11
UACC-62; Melanoma, UACC-62
  Log10GI50: −6.86
UACC-62; UACC-62 (Melanoma), LC50: PG=−50
  Log10LC50: −4.29 log10M
UACC-62; UACC-62 (Melanoma), TGI: PG=0
  Log10TGI50: −4.74 log10M
SF-295
  Log10GI50: −5.59
  Log10LC50: −4.39 log10M
  Log10TGI50: −4.80 log10M
SW-620; Colon Cancer, SW-620
  Log10GI50: <−8.00
SW-620; SW-620 (Colon Cancer), LC50: PG=−50
  Log10LC50: −4.44 log10M
SW-620; SW-620 (Colon Cancer), TGI: PG=0
  Log10TGI50: −4.89 log10M
ACHN
  Log10LC50: −4.30 log10M
  Log10TGI50: −4.76 log10M
  Log10GI50: −7.12
SK-OV-3; Ovarian Cancer, SK-OV-3
  Log10GI50: −4.85
SK-OV-3; SK-OV-3 (Ovarian Cancer), LC50: PG=−50
  Log10LC50: −4.21 log10M
SK-OV-3; SK-OV-3 (Ovarian Cancer), TGI: PG=0
  Log10TGI50: −4.53 log10M
SR; Leukemia, SR
  Log10GI50: <−8.00
SR; SR (Leukemia), LC50: PG=−50
  Log10LC50: >−4.00 log10M
SR; SR (Leukemia), TGI: PG=0
  Log10TGI50: −4.58 log10M
MDA-N; Breast Cancer, MDA-N
  Log10GI50: −7.54
MDA-N; MDA-N (Breast Cancer), LC50: PG=−50
  Log10LC50: −4.45 log10M
MDA-N; MDA-N (Breast Cancer), TGI: PG=0
  Log10TGI50: −4.90 log10M
HCC-2998; Colon Cancer, HCC-2998
  Log10GI50: −7.45
HCC-2998; HCC-2998 (Colon Cancer), LC50: PG=−50
  Log10LC50: −4.59 log10M
HCC-2998; HCC-2998 (Colon Cancer), TGI: PG=0
  Log10TGI50: −5.39 log10M
A498; A498 (Renal Cancer), LC50: PG=−50
  Log10LC50: −4.50 log10M
A498; A498 (Renal Cancer), TGI: PG=0
  Log10TGI50: −5.00 log10M
A498; Renal Cancer, A498
  Log10GI50: −6.69
HOP-62
  Log10LC50: −4.20 log10M
  Log10TGI50: −4.56 log10M
  Log10GI50: −4.92
NCI-H226; NCI-H226 (Non-Small Cell Lung Cancer), LC50: PG=−50
  Log10LC50: >−4.00 log10M
NCI-H226; NCI-H226 (Non-Small Cell Lung Cancer), TGI: PG=0
  Log10TGI50: −4.40 log10M
NCI-H226; Non-Small Cell Lung Cancer, NCI-H226
  Log10GI50: −4.82
SK-MEL-5; Melanoma, SK-MEL-5
  Log10GI50: −7.90
SK-MEL-5; SK-MEL-5 (Melanoma), LC50: PG=−50
  Log10LC50: −4.53 log10M
SK-MEL-5; SK-MEL-5 (Melanoma), TGI: PG=0
  Log10TGI50: −7.18 log10M
DU-145; DU-145 (Prostate Cancer), LC50: PG=−50
  Log10LC50: −4.36 log10M
DU-145; DU-145 (Prostate Cancer), TGI: PG=0
  Log10TGI50: −4.72 log10M
DU-145; Prostate Cancer, DU-145
  Log10GI50: −6.24
SN12C; Renal Cancer, SN12C
  Log10GI50: −7.46
SN12C; SN12C (Renal Cancer), LC50: PG=−50
  Log10LC50: −4.35 log10M
SN12C; SN12C (Renal Cancer), TGI: PG=0
  Log10TGI50: −4.84 log10M
LOX IMVI; LOX IMVI (Melanoma), LC50: PG=−50
  Log10LC50: >−4.00 log10M
LOX IMVI; LOX IMVI (Melanoma), TGI: PG=0
  Log10TGI50: −4.45 log10M
LOX IMVI; Melanoma, LOX IMVI
  Log10GI50: −7.26
SNB-19; CNS Cancer, SNB-19
  Log10GI50: −4.88
SNB-19; SNB-19 (CNS Cancer), LC50: PG=−50
  Log10LC50: −4.13 log10M
SNB-19; SNB-19 (CNS Cancer), TGI: PG=0
  Log10TGI50: −4.50 log10M
OVCAR-4; OVCAR-4 (Ovarian Cancer), LC50: PG=−50
  Log10LC50: −4.16 log10M
OVCAR-4; OVCAR-4 (Ovarian Cancer), TGI: PG=0
  Log10TGI50: −4.62 log10M
OVCAR-4; Ovarian Cancer, OVCAR-4
  Log10GI50: −5.44

## C[C@@H]1CC[C@H]2[C@@H](C)C(CC(O)(COC(=O)CCC(=O)O)CC3OC4O[C@]5(C)CC[C@H]6[C@H](C)CC[C@@H]([C@H]3C)C46OO5)OC3O[C@]4(C)CCC1C32OO4 (stereo partly shown) [Compound 9, tertiary alcohol primary succinate ester]
SF-295
  Log10GI50: <−8.30
  Log10LC50: −4.60 log10M
  Log10TGI50: <−8.30 log10M
ACHN
  Log10LC50: >−4.30 log10M
  Log10TGI50: −4.74 log10M
  Log10GI50: −6.67
HOP-62
  Log10LC50: >−4.30 log10M
  Log10TGI50: >−4.30 log10M
  Log10GI50: −5.69
[1]
  water solubility relative to artelinic acid: ~30 times
[2]; route IV
  ED50: 2.4 mg/kg
  ED90: 11.0 mg/kg × 4
  % Parasite Supression at 10 mg/kg: 83.4%
[2]; route PO
  ED50: 4.8 mg/kg
  ED90: 34.0 mg/kg × 4
  % Parasite Supression at 10 mg/kg: 55.4%
